How the values were obtained:
CDK2 = CDK2 (Homo sapiens, UniProt P24941); test: Cyclin dependent protein kinase substrate phosphorylation assay, CDK2; assay type: biochemical
Experimental: CDK1 and CDK2 were both expressed utilizing a baculovirus expression system and were partially purified to comprise 20-80% of total protein, with no detectable competing reactions present. […] Reactions were terminated with 0.2-2 volumes of either 20% acetic acid or 50-100 mM EDTA buffered to pH 7 (substrate consumption<20%). The buffer employed in enzyme assays was either 30 mM HEPES 7.4 containing 0.15 M NaCl and 5% DMSO, the buffer 50 mM MOPS 7.0 containing 0.15 M NaCl and 5% DMSO, or the buffer 100 mM HEPES pH 7.5 containing 0.1 mg /mL BSA and 5% DMSO. Inhibitors were diluted in 100% DMSO prior to addition into the assay. Detection of peptide phosphorylation was accomplished by scintillation counting following either collection of peptide onto phosphocellulose filters (for reactions stopped with acetic acid), collection of peptide in wells of 96 well plates coated with Streptavidin (Pierce) (reactions were stopped with EDTA), or addition of Avidin coated Scintillant impregnated beads (Scintillation Proximity Assays from Amersham, reactions were stopped with EDTA).

cSrc = cSrc (Homo sapiens, UniProt P12931); test: Src peptide phosphorylation assay (Elisa or isotope based); assay type: biochemical
Experimental: The peptide substrates used in Src and Lck assays were biotin-aminohexyl-EEIYGEF-NH2 (Src) and biotin-aminohexyl-[…]-NH2 (Lck). The src and Ick proteins were purified to homogeneity from a baculovirus expression system and preactivated before adding to assay mixtures. The maximum activation was achieved by incubating concentrated enzyme (10-30 mM) on ice for 40 min in the presence of 1 mM ATP and 10 mM MgCl2 in 100 mM HEPES, pH 7.5. The activated enzyme was diluted to 2 nM into a 50-mL reaction mixture containing 100 mM HEPES, pH 7.5. 5 mM ATP, 10 mM MgCl2, 2 mM peptide, 0.05 mg/mL BSA, and an inhibitor at varying concentrations and with or without 8 mCi/mL [γ-^33P]ATP dependent upon the method of analysis for the extent of reaction. The controls were reactions in the presence (negative controls) or absence (positive controls) of 50 mM EDTA. Reactions were allowed to proceed for 30 min at room temperature and quenched with addition of EDTA to 50 mM in 220 mL. The extent of reactions was analyzed in one of the two ways: an Elisa-based and a radioactive isotope-based. The quenched samples (200 mL) were transferred to a neutravidin coated plate (Perice) and incubated at room temperature for 40 min to allow biotinylated peptide to bind to neutravidin. The unbound peptide and the rest of the solution was washed away using a plate washer. In the Elisa format, a 200 mL HRP-PY20 anti phosphotyrosine antibody conjugate solution was added. After incubation for about 30 min, the plated was washed to remove unbound antibody-HRP conjugate. An Elisa substrate, K-blue (Neogen), was added and the Elisa reaction quenched with Red-stop (Neogen) after 15 min. The plate was read at A625 in a plate reader. In the isotope-based format, the reactions had been performed in the presence of [γ-^33P]ATP. 200 mL Scintiverce DB was added to each well of the plate with bound biotin-peptide. The plate was sealed and counted in a micro-b-counter (Wallac). IC50 values were obtained by fitting raw data to A625 (cpm)=Vmax*(1−([l]/(IC50+[l])))+b, where b is background.

[1] = tested on: HDF normal diploid fibroblast cells; test: FACS assay (cell death by flow cytometry), HDF; assay type: cell-based, human; conditions: Homo sapiens, Fibroblast, 72 h, read-out: FACS HDF IC50
Experimental: These assays allow determination of both cell death and changes in cell cycle profile in cells following treatment of the compound. The assay is performend as follows:
1. Cells are incubated in DMEM to which 10% FCS has been added in a humidified incubator at 37° C. and 5% by volume of CO2 in air. The cells are innoculated in 6-well plates at a density of 0.5-5×10^5 cells per well.
2. The test compound is added in serial dilutions 24-36 h after plating in 0.5% DMSO. The plates are then incubated a further 72 h in the presence of the compound. During this time, cells in control cultures undergo at least three cell divisions.
3. After incubation, the media is collected and cells are harvested by trypsinization. The cells and media are pooled and pelleted by centrifugation.
4. The cell pellet is fixed in a final volume of 3 mL of 50% ice cold MeOH and incubated for a minimum of 30 min at −20° C.
5. The cells are pelleted by centrifugation and resuspended in 0.5 mL PBS containing 1%FCS, […] Propidium Iodide (PI) and 5 mg/mL RNase A and incubated 30 min at 37° C. in the dark.
6. The samples are analysed by flow cytometry using the relative incorporation of PI as a measure of DNA content of each cell. The % Dead cells is recorded as % of events with less than 2N DNA.
HDF are normal diploid fibroblast cells. RKO are colon adenocarcinoma cells and MES/SA are […].

[2] = tested on: HDF normal diploid fibroblast cells; test: MTT assay, HDF; assay type: cell-based, human; conditions: Homo sapiens, Fibroblast, 72 h, read-out: MTT HDF IC50
Experimental: Compounds are tested for their ability to inhibit cell proliferation and cell viability. The metabolic conversion of 3-(4,5-dimethylthiazol-2-yl)-2,5-diphenyltetrazolium bromide (MTT, Sigma #M2128) to a reduced form is a commonly used measure of cellular viability. Following is the procedure:
Cells are maintained in 75 cm^2 tissue culture flasks until ready for use. The cells are grown and plated for the assay in Dulbecco's modified Eagle's media (DMEM) containing 10% fetal bovine serum. For example, the following cell lines can be used: a) human foreskin fibroblasts (HFF); b) HT29 (human colon carcinoma cell line); c)MDA-MB-468 (human breast carcinoma cell line); d) RKO (human colon adenocarcinoma cell line); e) SW620 (human colon carcinoma cell line); f) A549 (human lung carcinoma cell line); and g) MIA PACA (human pancreatic carcinoma cell line). Cells are maintained at 37° C. in 10% CO2, 90% humidified air. Cells are plated in 96-well tissue culture plates at the densities listed below. […]
Cells are returned to incubator and allowed to proliferate in the presence of compound for 72 h before addition of MTT. […] Quantitation of metabolic reduction of MTT in each plate is performed by reading optical density at 570 nm wavelength on a Molecular Devices UVmax microplate reader. Growth inhibition curves and 50% inhibitory concentrations are determined using Microsoft Excel. […]

Sequence of cSrc (P12931 whole entry, species assumed): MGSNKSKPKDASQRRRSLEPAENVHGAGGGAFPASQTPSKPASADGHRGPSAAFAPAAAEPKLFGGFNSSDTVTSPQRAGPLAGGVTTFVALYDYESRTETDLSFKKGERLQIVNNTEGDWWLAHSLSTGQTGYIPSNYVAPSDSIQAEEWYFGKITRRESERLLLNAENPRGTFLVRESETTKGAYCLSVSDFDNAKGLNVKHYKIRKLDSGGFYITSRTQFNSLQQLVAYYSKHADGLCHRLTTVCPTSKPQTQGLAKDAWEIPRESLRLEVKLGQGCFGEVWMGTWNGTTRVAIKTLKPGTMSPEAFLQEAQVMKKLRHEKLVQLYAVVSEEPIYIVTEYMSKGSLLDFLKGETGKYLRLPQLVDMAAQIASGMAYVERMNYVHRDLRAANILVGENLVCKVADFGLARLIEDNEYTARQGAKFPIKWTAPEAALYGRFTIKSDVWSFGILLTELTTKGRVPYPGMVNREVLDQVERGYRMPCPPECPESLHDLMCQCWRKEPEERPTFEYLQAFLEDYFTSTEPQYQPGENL

**Q.** `CNS(=O)(=O)Cc1ccc(NN=C2C(=O)Nc3ccc4ncccc4c32)cc1` [Example 68, N-Methyl-C-{4-[N′-(2-oxo-2,3-dihydro-pyrrolo[3,2-f]quinolin-1-ylidene)-hydrazino]-phenyl}-methanesulfonamide] was tested. Which IC50 (CDK2) did it give?
**A.** 1 to 10 nM

**Q.** `O=C1Nc2ccc3ncsc3c2C1=CNc1ccc(S(=O)(=O)Nc2ccccn2)cc1` [Example 72, 4-[(7-Oxo-6,7-dihydro-1-thia-3,6-diaza-as-indacen-8-ylidenemethyl)-amino]-N-pyridin-2-yl-benzenesulfonamide] was tested. Which IC50 (cSrc) did it give?
**A.** > 100 nM

**Q.** What about the IC50 [1] of the same compound?
**A.** > 5000 nM

**Q.** What about the IC50 [2] of the same compound?
**A.** > 5000 nM

**Q.** For `CNS(=O)(=O)Cc1ccc(NN=C2C(=O)Nc3cc(C)c(O)c(C)c32)cc1` [Example 99], which IC50 (cSrc) is on record?
**A.** > 100 nM

**Q.** For `CS(=O)(=O)Cc1ccc(NC=C2C(=O)Nc3ccc4ncsc4c32)cc1` [Example 76, 8-(4-Methylsulfonylmethyl-phenylamino-methylene)-6,8-dihydro-1-thia-3,6-diaza-as-indacen-7-one], which IC50 (CDK2) is on record?
**A.** 11 to 50 nM

**Q.** What about the IC50 (cSrc) of the same compound?
**A.** > 100 nM

Source: patent US6541503B2, “Substituted oxindole derivatives as protein tyrosine kinase and as protein serine/threonine kinase inhibitors” (SmithKline Beecham Corporation, priority 1997, dated 2003)
